PMC12825302, “Structural plasticity enables broad cAn binding and dual activation of CRISPR-associated ribonuclease Cdn1” (Nucleic Acids Research, 2026)

Assays:
[1] = target: T1, Cdn1 (Psychrobacter lutiphocae, UniProt A0ACN4YG66); experiment: ITC; assay type: binding
T1 construct: codon-optimized gene in pET-28a(+), E. coli BL21(DE3), Ni-NTA and SEC; homodimer (SEC-MALS); N-terminal CARF and C-terminal PD-(D/E)xK nuclease domain
T1 sequence (A0ACN4YG66 1-399): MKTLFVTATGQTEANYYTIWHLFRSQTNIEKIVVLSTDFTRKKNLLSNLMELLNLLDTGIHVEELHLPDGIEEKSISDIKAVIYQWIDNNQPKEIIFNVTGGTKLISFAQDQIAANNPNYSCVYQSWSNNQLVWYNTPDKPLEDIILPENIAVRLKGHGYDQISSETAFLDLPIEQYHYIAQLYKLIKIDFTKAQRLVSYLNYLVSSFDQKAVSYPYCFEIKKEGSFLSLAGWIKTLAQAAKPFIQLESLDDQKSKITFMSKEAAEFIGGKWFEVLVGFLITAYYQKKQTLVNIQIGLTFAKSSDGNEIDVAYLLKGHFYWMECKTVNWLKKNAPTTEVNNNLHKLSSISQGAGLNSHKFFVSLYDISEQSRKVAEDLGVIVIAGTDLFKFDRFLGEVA

[2] = target: T1, Cdn1; experiment: FAM-labeled ssRNA (RNA1) cleavage, urea-PAGE; assay type: biochemical
[3] = target: Cdn1 (CRISPR-associated dual-cOAs-activated ribonuclease 1) (Psychrobacter lutiphocae); experiment: SEC; size-exclusion chromatography during purification (HiLoad 16/600 Superdex 200 prep grade); no cyclic oligoadenylate added
[4] = target: Cdn1 (CRISPR-associated dual-cOAs-activated ribonuclease 1) (Psychrobacter lutiphocae); experiment: SEC-MALS; 10 mg/ml Cdn1 in 50 mM NaH2PO4/Na2HPO4, pH 7.4, 300 mM NaCl; TSKgel G3000SWXL, 0.5 ml/min, 8°C; no cyclic oligoadenylate added

Row | Kd [1] [nM] | EC50 [2] [nM] | stoichiometry N [3] | stoichiometry N [4] | Molecule
1 | 23 ± 8.7 | – | – | – | Nc1ncnc2c1ncn2[C@@H]1O[C@@H]2COP(=O)(O)O[C@H]3[C@@H](O)[C@H](n4cnc5c(N)ncnc54)O[C@@H]3COP(=O)(O)O[C@H]3[C@@H](O)[C@H](n4cnc5c(N)ncnc54)O[C@@H]3COP(=O)(O)O[C@H]2[C@H]1O [cA3]
2 | 54.6 ± 25.1 | 2.17 ± 0.68 | – | – | Nc1ncnc2c1ncn2[C@@H]1O[C@@H]2COP(=O)(O)O[C@H]3[C@@H](O)[C@H](n4cnc5c(N)ncnc54)O[C@@H]3COP(=O)(O)O[C@H]3[C@@H](O)[C@H](n4cnc5c(N)ncnc54)O[C@@H]3COP(=O)(O)O[C@H]3[C@@H](O)[C@H](n4cnc5c(N)ncnc54)O[C@@H]3COP(=O)(O)O[C@H]2[C@H]1O [cA4]
3 | 740 ± 205 | 670 ± 98.8 | – | – | Nc1ncnc2c1ncn2[C@@H]1O[C@@H]2COP(=O)(O)O[C@H]3[C@@H](O)[C@H](n4cnc5c(N)ncnc54)O[C@@H]3COP(=O)(O)O[C@H]3[C@@H](O)[C@H](n4cnc5c(N)ncnc54)O[C@@H]3COP(=O)(O)O[C@H]3[C@@H](O)[C@H](n4cnc5c(N)ncnc54)O[C@@H]3COP(=O)(O)O[C@H]3[C@@H](O)[C@H](n4cnc5c(N)ncnc54)O[C@@H]3COP(=O)(O)O[C@H]3[C@@H](O)[C@H](n4cnc5c(N)ncnc54)O[C@@H]3COP(=O)(O)O[C@H]2[C@H]1O [cA6]
4 | – | – | 2 | 2 | Cdn1 (CRISPR-associated dual-cOAs-activated ribonuclease 1) (enzyme)
